According to PubChem BioAssay AID212 (DTP/NCI, 2004):
Several values for one entry are separate records, joined by “and”; a condition that tells them apart may be missing. Identical values can stand only once. Results filed as inconclusive are left out.

Tested on: BDF1 mice, colon carcinoma 38 sc, T/C %
Assay: NCI In Vivo Anticancer Drug Screen. Data for tumor model Colon Carcinoma 38 (subcutaneous) in B6D2F1 (BDF1) mice
Conditions: endpoint: median tumor weight (est.), higher = larger tumour
Summary of the method: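 Compound antitumor activity was assessed in mice carrying transplantable tumors. Survival or tumor size was recorded, and each value is the treated-group measurement divided by that of the vehicle-treated control group.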

[1] = dose: 200.0 mg/kg/injection, schedule: Q07DX002 (ip), vehicle: Klucel (hydroxypropylcellulose) (HPC)
[2] = dose: 400.0 mg/kg/injection, schedule: Q07DX002 (ip), vehicle: Klucel (hydroxypropylcellulose) (HPC)
[3] = dose: 100.0 mg/kg/injection, schedule: Q07DX002 (ip), vehicle: suspension in saline
[4] = dose: 3.12 mg/kg/injection, schedule: Q07DX002 (ip), vehicle: saline with Tween-80
[5] = dose: 6.25 mg/kg/injection, schedule: Q07DX002 (ip), vehicle: saline with Tween-80
[6] = dose: 50.0 mg/kg/injection, schedule: Q07DX002 (ip), vehicle: saline with Tween-80
[7] = dose: 100.0 mg/kg/injection, schedule: Q07DX002 (ip), vehicle: saline with Tween-80
[8] = dose: 25.0 mg/kg/injection, schedule: Q07DX002 (ip), vehicle: Klucel (hydroxypropylcellulose) (HPC)
[9] = dose: 50.0 mg/kg/injection, schedule: Q07DX002 (ip), vehicle: Klucel (hydroxypropylcellulose) (HPC)

**Q.** Which results are given for `C[C@]12CCC(=O)C=C1CC[C@@H]1[C@@H]2[C@@H](O)C[C@@]2(C)[C@H]1CC[C@]2(O)C(=O)CO`?
**A.** T/C (dose: 40.0 mg/kg/injection, schedule: Q07DX003 (ip), vehicle: Klucel (hydroxypropylcellulose) (HPC)): 73 % of control; T/C (dose: 80.0 mg/kg/injection, schedule: Q07DX003 (ip), vehicle: Klucel (hydroxypropylcellulose) (HPC)): 76 % of control; T/C (dose: 160.0 mg/kg/injection, schedule: Q07DX003 (ip), vehicle: Klucel (hydroxypropylcellulose) (HPC)): 123 % of control and 104 % of control; T/C [1]: 63 % of control; T/C (dose: 320.0 mg/kg/injection, schedule: Q07DX003 (ip), vehicle: Klucel (hydroxypropylcellulose) (HPC)): 118 % of control; T/C [2]: 74 % of control; T/C (dose: 640.0 mg/kg/injection, schedule: Q07DX003 (ip), vehicle: Klucel (hydroxypropylcellulose) (HPC)): 79 % of control and 103 % of control; T/C (dose: 800.0 mg/kg/injection, schedule: Q07DX002 (ip), vehicle: Klucel (hydroxypropylcellulose) (HPC)): 93 % of control; T/C (dose: 800.0 mg/kg/injection, schedule: Q07DX003 (ip), vehicle: Klucel (hydroxypropylcellulose) (HPC)): 57 % of control; T/C (dose: 1200.0 mg/kg/injection, schedule: Q07DX002 (ip), vehicle: Klucel (hydroxypropylcellulose) (HPC)): 70 % of control

**Q.** For `COC(=O)Nc1cccc(-c2nc3ccc(NC(=O)OC)cc3c(=O)n2-c2ccccc2)c1`, which T/C (dose: 32.0 mg/kg/injection, schedule: Q07DX003 (ip), vehicle: Klucel (hydroxypropylcellulose) (HPC)) is on record?
**A.** 78 % of control

**Q.** And the T/C (dose: 64.0 mg/kg/injection, schedule: Q07DX003 (ip), vehicle: Klucel (hydroxypropylcellulose) (HPC))?
**A.** 70 % of control

**Q.** And the T/C (dose: 128.0 mg/kg/injection, schedule: Q07DX003 (ip), vehicle: Klucel (hydroxypropylcellulose) (HPC))?
**A.** 87 % of control

**Q.** And the T/C (dose: 256.0 mg/kg/injection, schedule: Q07DX003 (ip), vehicle: Klucel (hydroxypropylcellulose) (HPC))?
**A.** 30 % of control

**Q.** Which results are given for `COc1cc(Cc2nccc3cc(OC)c(OC)cc23)c(C(C)=O)cc1OC`?
**A.** T/C (dose: 12.5 mg/kg/injection, schedule: Q07DX002 (ip), vehicle: suspension in saline): 166 % of control; T/C (dose: 25.0 mg/kg/injection, schedule: Q07DX002 (ip), vehicle: suspension in saline): 108 % of control; T/C (dose: 50.0 mg/kg/injection, schedule: Q07DX002 (ip), vehicle: suspension in saline): 110 % of control; T/C [3]: 69 % of control

**Q.** Which results are given for `BrC[P+](CBr)(CBr)CBr`?
**A.** T/C [4]: 48 % of control; T/C [5]: 73 % of control; T/C [6]: 82 % of control; T/C [7]: 75 % of control and 77 % of control

**Q.** How did the T/C (dose: 1.56 mg/kg/injection, schedule: Q07DX002 (ip), vehicle: saline with Tween-80) turn out when `Cc1c(CNc2ccc(C(=O)NC(CC(=O)O)C(=O)O)cc2)ccc2nc(N)nc(N)c12` (stereo unspecified) was run?
**A.** 86 % of control

**Q.** And the T/C (dose: 1.56 mg/kg/injection, schedule: Q07DX002 (ip), vehicle: saline)?
**A.** 122 % of control

**Q.** And the T/C [4]?
**A.** 87 % of control

**Q.** And the T/C (dose: 3.12 mg/kg/injection, schedule: Q07DX002 (ip), vehicle: saline)?
**A.** 96 % of control

**Q.** And the T/C [5]?
**A.** 35 % of control

**Q.** What about the T/C (dose: 6.25 mg/kg/injection, schedule: Q07DX002 (ip), vehicle: saline) of the same compound?
**A.** 48 % of control

**Q.** And the T/C (dose: 12.5 mg/kg/injection, schedule: Q07DX002 (ip), vehicle: saline)?
**A.** 32 % of control

**Q.** With `COC1C(CO)OC(n2cnc3c(=S)nc(N)[nH]c32)C1O` (stereo unspecified) as the compound, how does the T/C (dose: 12.5 mg/kg/injection, schedule: Q07DX002 (ip), vehicle: Klucel (hydroxypropylcellulose) (HPC)) read?
**A.** 98 % of control

**Q.** What about the T/C [8] of the same compound?
**A.** 74 % of control

**Q.** What about the T/C [9] of the same compound?
**A.** 44 % of control

**Q.** And the T/C (dose: 100.0 mg/kg/injection, schedule: Q07DX002 (ip), vehicle: Klucel (hydroxypropylcellulose) (HPC))?
**A.** 118 % of control

**Q.** What about the T/C [1] of the same compound?
**A.** 69 % of control

**Q.** And the T/C [2]?
**A.** 44 % of control

**Q.** What does the source list for `CS(=O)(=O)c1ncc(Br)cn1`?
**A.** T/C [5]: 106 % of control; T/C (dose: 12.5 mg/kg/injection, schedule: Q07DX002 (ip), vehicle: saline with Tween-80): 76 % of control; T/C [6]: 94 % of control; T/C [7]: 113 % of control; T/C (dose: 200.0 mg/kg/injection, schedule: Q07DX002 (ip), vehicle: saline with Tween-80): 106 % of control

**Q.** What does the source list for `N/C(=N\O)c1cn(C2OC(CO)C(O)C2O)c2ncnc(N)c12` (stereo unspecified)?
**A.** T/C (dose: 1.0 mg/kg/injection, schedule: Q07DX002 (ip), vehicle: Klucel (hydroxypropylcellulose) (HPC)): 72 % of control; T/C (dose: 2.0 mg/kg/injection, schedule: Q07DX002 (ip), vehicle: Klucel (hydroxypropylcellulose) (HPC)): 82 % of control; T/C (dose: 4.0 mg/kg/injection, schedule: Q07DX002 (ip), vehicle: Klucel (hydroxypropylcellulose) (HPC)): 79 % of control; T/C (dose: 4.0 mg/kg/injection, schedule: Q07DX003 (ip), vehicle: Klucel (hydroxypropylcellulose) (HPC)): 6 % of control; T/C (dose: 8.0 mg/kg/injection, schedule: Q07DX002 (ip), vehicle: Klucel (hydroxypropylcellulose) (HPC)): 91 % of control; T/C (dose: 8.0 mg/kg/injection, schedule: Q07DX003 (ip), vehicle: Klucel (hydroxypropylcellulose) (HPC)): 17 % of control; T/C (dose: 16.0 mg/kg/injection, schedule: Q07DX002 (ip), vehicle: Klucel (hydroxypropylcellulose) (HPC)): 93 % of control; T/C (dose: 16.0 mg/kg/injection, schedule: Q07DX003 (ip), vehicle: Klucel (hydroxypropylcellulose) (HPC)): 7 % of control

**Q.** With `CCOC(=O)Nc1cc2c(c(N)n1)N=C(CN(C)c1ccccc1)CN2` as the compound, how does the T/C [8] read?
**A.** 88 % of control

**Q.** And the T/C [9]?
**A.** 63 % of control and 68 % of control

**Q.** Which T/C [3] does the source give for `Nc1nc2nc[nH]c2c(=O)[nH]1` here?
**A.** 90 % of control

**Q.** And the T/C (dose: 200.0 mg/kg/injection, schedule: Q07DX002 (ip), vehicle: suspension in saline)?
**A.** 83 % of control

**Q.** With `CCCC(=O)O.CCCC(=O)O.CCCC(=O)O.CCCC(=O)O.[Rh].[Rh]` as the compound, how does the T/C (dose: 0.25 mg/kg/injection, schedule: Q07DX002 (ip), vehicle: saline + alcohol) read?
**A.** 87 % of control

**Q.** And the T/C (dose: 0.5 mg/kg/injection, schedule: Q07DX002 (ip), vehicle: saline + alcohol)?
**A.** 76 % of control

**Q.** And the T/C (dose: 1.0 mg/kg/injection, schedule: Q07DX002 (ip), vehicle: saline + alcohol)?
**A.** 91 % of control

**Q.** Which results are given for `O=C1c2ccccc2C(=O)c2c3c(cc(NCCNCCO)c21)N(CCO)CCN3`?
**A.** T/C (dose: 100.0 mg/kg/injection, schedule: Q07DX002 (ip), vehicle: DMSO): 96 % of control; T/C (dose: 200.0 mg/kg/injection, schedule: Q07DX002 (ip), vehicle: DMSO): 105 % of control; T/C (dose: 400.0 mg/kg/injection, schedule: Q07DX002 (ip), vehicle: DMSO): 117 % of control

**Q.** For `O=C(CCBr)N1CCN(C(=O)CCBr)CC1`, which T/C (dose: 10.0 mg/kg/injection, schedule: Q07DX002 (ip), vehicle: saline with Tween-80) is on record?
**A.** 90 % of control

**Q.** And the T/C (dose: 10.0 mg/kg/injection, schedule: Q07DX002 (ip), vehicle: water)?
**A.** 172 % of control

**Q.** And the T/C (dose: 20.0 mg/kg/injection, schedule: Q07DX002 (ip), vehicle: saline with Tween-80)?
**A.** 111 % of control

**Q.** And the T/C (dose: 20.0 mg/kg/injection, schedule: Q07DX002 (ip), vehicle: water)?
**A.** 109 % of control

**Q.** What about the T/C (dose: 40.0 mg/kg/injection, schedule: Q07DX002 (ip), vehicle: saline with Tween-80) of the same compound?
**A.** 60 % of control

**Q.** And the T/C (dose: 40.0 mg/kg/injection, schedule: Q07DX002 (ip), vehicle: water)?
**A.** 157 % of control

**Q.** And the T/C (dose: 80.0 mg/kg/injection, schedule: Q07DX002 (ip), vehicle: saline with Tween-80)?
**A.** 69 % of control and 78 % of control

**Q.** And the T/C (dose: 80.0 mg/kg/injection, schedule: Q07DX002 (ip), vehicle: water)?
**A.** 120 % of control

**Q.** What about the T/C (dose: 160.0 mg/kg/injection, schedule: Q07DX002 (ip), vehicle: water) of the same compound?
**A.** 91 % of control

**Q.** And the T/C (dose: 320.0 mg/kg/injection, schedule: Q07DX002 (ip), vehicle: water)?
**A.** 67 % of control

**Q.** For `Cc1cc(NCCCCCCNc2cc(C)nc3cc(N(C)C)ccc23)c2ccc(N(C)C)cc2n1`, which T/C (dose: 6.0 mg/kg/injection, schedule: Q07DX002 (ip), vehicle: distilled water + Tween-80 + alcohol) is on record?
**A.** 107 % of control

**Q.** What about the T/C (dose: 12.5 mg/kg/injection, schedule: Q07DX002 (ip), vehicle: distilled water + Tween-80 + alcohol) of the same compound?
**A.** 99 % of control

**Q.** And the T/C (dose: 25.0 mg/kg/injection, schedule: Q07DX002 (ip), vehicle: distilled water + Tween-80 + alcohol)?
**A.** 95 % of control

**Q.** What about the T/C (dose: 50.0 mg/kg/injection, schedule: Q07DX002 (ip), vehicle: distilled water + Tween-80 + alcohol) of the same compound?
**A.** 105 % of control

**Q.** And the T/C (dose: 100.0 mg/kg/injection, schedule: Q07DX002 (ip), vehicle: distilled water + Tween-80 + alcohol)?
**A.** 90 % of control

**Q.** How did the T/C (dose: 75.0 mg/kg/injection, schedule: Q07DX002 (ip), vehicle: Klucel (hydroxypropylcellulose) (HPC)) turn out when `Nc1ncnc2c1ncn2C1OC(CO)CC1O` (stereo unspecified) was run?
**A.** 110 % of control

**Q.** And the T/C (dose: 150.0 mg/kg/injection, schedule: Q07DX002 (ip), vehicle: Klucel (hydroxypropylcellulose) (HPC))?
**A.** 88 % of control

**Q.** What about the T/C (dose: 300.0 mg/kg/injection, schedule: Q07DX002 (ip), vehicle: Klucel (hydroxypropylcellulose) (HPC)) of the same compound?
**A.** 54 % of control
